Type in all cases: binding
Experiment [1] concerns the target T1, lysosomal acid α-glucosidase (rhGAA) (Homo sapiens, UniProt P10253).
T1 construct: gene GAA; recombinant human GAA (Myozyme)
The experiment can be described thus: DSF thermal shift at […], pH […]. The settings on record: read-out: delta_Tm.

The target in experiment [2] is T1, lysosomal acid α-glucosidase (rhGAA). As to the kind of experiment: DSF thermal shift at […], pH […]. The settings on record: read-out: delta_Tm. This is another data set of the same source.
Experiment [3] shares this target. The experiment can be described thus: DSF (SYPRO Orange) titration at pH […] with Kd from cooperative model fit.
Experiment [4] has the same target. The experiment can be described thus: DSF thermal shift, dose-dependent; rescue of rhGAA activity at pH […]. The settings on record: read-out: delta_Tm.

Take `OC[C@H]1NC[C@H](O)[C@@H](O)[C@@H]1O` [compound 1, DNJ]: the ΔTm at 100 µM in experiment [1] was 12.1 °C. For the molecule `CC(=O)N[C@@H](CS)C(=O)O` [compound 3, N-acetylcysteine], the ΔTm at 10000 µM in experiment [2] turned out to be 9.6 ± 0.2 °C. `C[N+](C)(C)C[C@H](O)CC(=O)[O-]` [compound 6, L-carnitine] showed a Kd in experiment [3] of 9.16 ± 1.02 mM. With `C[N+](C)(C)C[C@@H](O)CC(=O)[O-]` [compound 7, D-carnitine], the ΔTm at 5000 µM in experiment [4] is 4.9 ± 0.1 °C.

The values are drawn from paper PMC8477953, “Carnitine is a pharmacological allosteric chaperone of the human lysosomal α-glucosidase” (Journal of Enzyme Inhibition and Medicinal Chemistry, 2021).
